Measurements from PubChem BioAssay (NCI).
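Grown in 96-well plates, cells were treated for 48 hours with each compound at five concentrations. Insufficient inhibition: endpoint recorded as highest concentration tested. TGI: total growth inhibition.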

Legend:
Experiment in all cases: NCI anticancer screen, dose series, 48 h
KM12 colon = tested on: KM12 colon
SF-295 CNS = tested on: SF-295 CNS
TK-10 renal = tested on: TK-10 renal
MALME-3M melanoma = tested on: MALME-3M melanoma
MDA-N = tested on: MDA-N
SNB-75 CNS = tested on: SNB-75 CNS
786-0 renal = tested on: 786-0 renal
DU-145 prostate = tested on: DU-145 prostate
UACC-62 melanoma = tested on: UACC-62 melanoma
UO-31 renal = tested on: UO-31 renal
SW-620 colon = tested on: SW-620 colon
MCF7 breast = tested on: MCF7 breast
HCT-116 colon = tested on: HCT-116 colon
MDA-MB-435 = tested on: MDA-MB-435
OVCAR-4 ovarian = tested on: OVCAR-4 ovarian
HCT-15 colon = tested on: HCT-15 colon
NCI-H522 lung = tested on: NCI-H522 lung
NCI/ADR-RES ovarian = tested on: NCI/ADR-RES ovarian
CAKI-1 renal = tested on: CAKI-1 renal
SK-MEL-5 melanoma = tested on: SK-MEL-5 melanoma
ACHN renal = tested on: ACHN renal
SF-539 CNS = tested on: SF-539 CNS
SK-MEL-2 melanoma = tested on: SK-MEL-2 melanoma
MDA-MB-231 breast = tested on: MDA-MB-231 breast
SF-268 CNS = tested on: SF-268 CNS
LOX IMVI melanoma = tested on: LOX IMVI melanoma
HS 578T breast = tested on: HS 578T breast
HT29 colon = tested on: HT29 colon
UACC-257 melanoma = tested on: UACC-257 melanoma
OVCAR-8 ovarian = tested on: OVCAR-8 ovarian
COLO 205 colon = tested on: COLO 205 colon
HOP-92 NSCLC = tested on: HOP-92 NSCLC
K-562 leukemia = tested on: K-562 leukemia
SNB-19 CNS = tested on: SNB-19 CNS
A549 NSCLC = tested on: A549 NSCLC
RPMI-8226 leukemia = tested on: RPMI-8226 leukemia
NCI-H23 lung = tested on: NCI-H23 lung
BT-549 breast = tested on: BT-549 breast
SN12C renal = tested on: SN12C renal
NCI-H226 lung = tested on: NCI-H226 lung
SK-MEL-28 melanoma = tested on: SK-MEL-28 melanoma
HCC-2998 colon = tested on: HCC-2998 colon
U251 CNS = tested on: U251 CNS
NCI-H460 lung = tested on: NCI-H460 lung
PC-3 prostate = tested on: PC-3 prostate
T-47D breast = tested on: T-47D breast
SK-OV-3 ovarian = tested on: SK-OV-3 ovarian
A498 renal = tested on: A498 renal
CCRF-CEM leukemia = tested on: CCRF-CEM leukemia
OVCAR-5 ovarian = tested on: OVCAR-5 ovarian
IGROV1 ovarian = tested on: IGROV1 ovarian
SR leukemia = tested on: SR leukemia
HL-60(TB) leukemia = tested on: HL-60(TB) leukemia
HOP-62 NSCLC = tested on: HOP-62 NSCLC
OVCAR-3 ovarian = tested on: OVCAR-3 ovarian
EKVX NSCLC = tested on: EKVX NSCLC
MOLT-4 leukemia = tested on: MOLT-4 leukemia
M14 melanoma = tested on: M14 melanoma

Measured: TGI

Cn1c2c(c3ccccc31)CC(=S)N1CCCC(CC2O)C1 (configuration not stated)
> 100 µM: KM12 colon | SF-295 CNS | TK-10 renal | MALME-3M melanoma | MDA-N | SNB-75 CNS | 786-0 renal | DU-145 prostate | UACC-62 melanoma | UO-31 renal | SW-620 colon | MCF7 breast | HCT-116 colon | MDA-MB-435 | OVCAR-4 ovarian | HCT-15 colon | NCI-H522 lung | NCI/ADR-RES ovarian | CAKI-1 renal | SK-MEL-5 melanoma | ACHN renal | SF-539 CNS | SK-MEL-2 melanoma | MDA-MB-231 breast | SF-268 CNS | LOX IMVI melanoma | HS 578T breast | HT29 colon | UACC-257 melanoma | OVCAR-8 ovarian | COLO 205 colon | HOP-92 NSCLC | K-562 leukemia | SNB-19 CNS | A549 NSCLC | RPMI-8226 leukemia | NCI-H23 lung | BT-549 breast | SN12C renal | NCI-H226 lung | SK-MEL-28 melanoma | HCC-2998 colon | U251 CNS | NCI-H460 lung | PC-3 prostate | T-47D breast | SK-OV-3 ovarian | A498 renal

Cc1cn(C2CC(N)C(C(=O)O)O2)c(=O)[nH]c1=O (configuration not stated)
> 100 µM: KM12 colon | CCRF-CEM leukemia | TK-10 renal | MALME-3M melanoma | MDA-N | SNB-75 CNS | 786-0 renal | OVCAR-5 ovarian | DU-145 prostate | UACC-62 melanoma | UO-31 renal | IGROV1 ovarian | SW-620 colon | SR leukemia | MCF7 breast | HL-60(TB) leukemia | HCT-116 colon | MDA-MB-435 | OVCAR-4 ovarian | HCT-15 colon | NCI-H522 lung | NCI/ADR-RES ovarian | CAKI-1 renal | SK-MEL-5 melanoma | HOP-62 NSCLC | ACHN renal | SF-539 CNS | SK-MEL-2 melanoma | MDA-MB-231 breast | OVCAR-3 ovarian | SF-268 CNS | HS 578T breast | HT29 colon | UACC-257 melanoma | OVCAR-8 ovarian | COLO 205 colon | HOP-92 NSCLC | K-562 leukemia | EKVX NSCLC | SNB-19 CNS | A549 NSCLC | RPMI-8226 leukemia | NCI-H23 lung | BT-549 breast | SN12C renal | NCI-H226 lung | HCC-2998 colon | U251 CNS | NCI-H460 lung | MOLT-4 leukemia | PC-3 prostate | M14 melanoma | SK-OV-3 ovarian | A498 renal
